{
  "source": "patent US11352637B2",
  "about": "“Methods and compositions for herbicide tolerance in plants” (MONSANTO TECHNOLOGY LLC, priority 2017, dated 2022)",
  "key": {"[1]": {"system": "KsIAA16 (R and S alleles) with KsTIR1 and/or KsAFB6", "assay": "Y2H assay, summary statements over the protein combinations tested", "type": "binding, Kochia scoparia", "settings": "for Y2H interaction in the presence of the auxin: any of the protein combinations tested; for Facilitation of interaction of KsIAA16R with KsTIR1 and/or KsAFB6: at the concentrations tested", "protocol": "(§1) Yeast two-hybrid (Y2H) studies were conducted using the Matchmaker® Gold Yeast Two-Hybrid System: vectors, transformation protocols and yeast strains (Clonetech Laboratories, Inc.). The coding sequences for the KsIAA16R (SEQ ID NO: 220), KsIAA16S (SEQ ID NO: 218), KsTIR1 (SEQ ID NO: 285), KsAFB6 (SEQ ID NO: 287), KsAFB2 (SEQ ID NO: 289), and KsAFB5 (SEQ ID NO: 291) were PCR amplified using primers specified in Table 2.\n(§2) PCR products were gel purified and recombined into NdeI/NotI digested pGADT7 or pGBKT7 vectors using the In-Fusion® cloning system (Clonetech Laboratories, Inc.). The pGBKT7 vector contained the GAL4 DNA binding domain, rendering the fusions as the “bait,” whereas the “prey” were the fusions containing the pGADT7 vector, which contained the GAL4 activation domain. All vectors were first sequence verified and then the listed vector combinations were co-transformed into the yeast strain, Y2HGold. […] Transformants were plated on SC-Trp-Leu plates to select for those containing both plasmids. Four healthy colonies were selected at random and resuspended into 300 μL of 0.1% agar in water. Five μL of this dilution was replica spotted onto each plate. Plates were incubated at 30° C. for 3 days prior to evaluation of colony growth.\n(§3) This method enabled the study of the binding/interaction of the Kochia R and S alleles of KsIAA16 with each of the Kochia TIR/AFB homologs (KsTIR1 (SEQ ID NO: 285), and KsAFB6 (SEQ ID NO: 287)) in the absence or presence of 100 μM or 500 μM exogenous concentrations of IAA, NAA, dicamba, and 2,4-D, picloram, triclopyr, quinclorac, fluroxypyr or phenylacetic acid (PAA)."}, "[2]": {"system": "seedlings of the R and S Kochia biotypes", "assay": "Root elongation response of Kochia seedlings", "type": "in vivo, Kochia scoparia", "settings": "for Root elongation inhibition of the R Kochia biotype: R biotype seedlings, FIG. 5", "protocol": "The root elongation response of seedlings from the R and S Kochia biotypes was tested to determine if the R biotype response was consistent with the Y2H findings. For root elongation studies, plant nutrient media was used, with 0.5% sucrose. Seeds were surface sterilized in 30% bleach with 0.1% Triton-X100 for 10 to 30 minutes, then rinsed twice in sterile water and resuspended in 0.1% agar for plating. Root lengths were measured to the nearest millimeter, and the average root length of 12 individuals was calculated unless otherwise noted."}, "[3]": {"system": "KsIAA16R in combination with KsTIR1", "assay": "Yeast two-hybrid (Y2H) assay: KsIAA16R binding with KsTIR1 in presence of auxin", "design": "species or system Kochia scoparia", "settings": "compared with KsIAA16S; concentration not given", "protocol": "as §1\nPCR products were gel purified and recombined into NdeI/NotI digested pGADT7 or pGBKT7 vectors using the In-Fusion® cloning system (Clonetech Laboratories, Inc.). The pGBKT7 vector contained the GAL4 DNA binding domain, rendering the fusions as the “bait,” whereas the “prey” were the fusions containing the pGADT7 vector, which contained the GAL4 activation domain. All vectors were first sequence verified and then the listed vector combinations were co-transformed into the yeast strain, Y2HGold. […] Transformants were plated on SC-Trp-Leu plates to select for those containing both plasmids. Four healthy colonies were selected at random and resuspended into 300 μL of 0.1% agar in water. Five μL of this dilution was replica spotted onto each plate. Plates were incubated at 30° C. for 3 days prior to evaluation of colony growth. […]"}, "[4]": {"system": "KsIAA16R in combination with KsAFB6", "assay": "Yeast two-hybrid (Y2H) assay: KsIAA16R binding with KsAFB6 in presence of auxin", "design": "species or system Kochia scoparia", "protocol": "as §1, §2, §3"}, "R and S Kochia biotypes": {"system": "R and S Kochia biotypes", "assay": "Greenhouse spray test for cross-resistance of Kochia R-biotype", "type": "in vivo, Kochia scoparia", "settings": "all treatments, track sprayer, 10 to 15 cm tall plants", "excerpt": "To elucidate whether the Kochia R-biotype is cross resistant to 2,4-D or fluroxypyr, greenhouse grown 10 to 15 cm tall Kochia plants were sprayed with either Dicamba at 0,140, 280, 560, 2240, 4480, 6720, 8960, or 17920 g a.e.ha^−1; 2,4-D at 0, 70, 140, 280, 560, 1120, 2240, 4480, 6720, 8960 g a.e.ha^−1 or fluroxypyr at 0, 17.5, 35, 70, 140, 280, 420, 560, 1120, 2240 g a.e.ha^−1 with a track sprayer. […]"}, "[5]": {"system": "transgenic Arabidopsis carrying AtIAA16P:KsIAA16 constructs", "assay": "Root elongation inhibition assay of T2 transgenic Arabidopsis on plant nutrient plus IAA or dicamba", "type": "in vivo, Arabidopsis thaliana", "excerpt": "To determine if the presence of the KsIAA16R allele alone was necessary and sufficient to confer dicamba resistance, several transgene expression constructs were generated for study of KsIAA16 in Arabidopsis. Agrobacterium tumefaciens was used to introduce the binary vectors in the plants using the floral dip method (Clough and Bent, 1998). Vectors contained either the ethanol inducible alcA promoter elements (Salter et al., 1998), the constitutive CaMV35S promoter, or the native Arabidopsis IAA16 promoter (AtIAA16P) driving either KsIAA16R (SEQ ID NO: 220) or KsIAA16S (SEQ ID NO: 218). GUS reporter constructs contained a 2.5 kb genomic DNA fragment from directly upstream of KsIAA16, which is expected to contain most of the promoter elements as well as the 5′UTR, driving uidA. All constructs contained either a Spectinomycin resistance gene (SPEC) or a glufosinate resistance gene (BAR) in the T-DNA region to serve as the selectable marker. For all constructs, T1 seed was harvested, surface sterilized, and plated on the appropriate selective media to identify independent T1 transformants. Single seed decent and segregation on selective media was used to estimate transgene insertion number and identify homozygous lines. For induction of the P-Alc promoter, ethanol was added to a final concentration of 0.01% just before plates were poured, and plates were used immediately. All plates were grown in a Percival growth chamber (Percival Scientific, Inc.) at 22° C. with 16 hour day/8 hour night light cycle and a light intensity of […]. Relative humidity was maintained at 50%. GUS assays were performed according to standard protocols. Briefly, a 20 mg/mL X-Gluc (GoldBio, St. Louis, Mo.) stock in dimethylformamide was diluted into 50 mM phosphate buffer, pH 7.0, to a final concentration of 1 mg/mL. This solution was added to plant tissues, and samples were placed under vacuum for 5 minutes to ensure penetration of the solution into the tissues. Samples were covered in foil to prevent light entry and place at 37° C. for 24 hours to allow color development. Staining solution was removed and chlorophyll was cleared by incubating samples in 50% ethanol for several hours."}},
  "data": [
    {"smiles": "O=C(O)Cc1ccccc1", "note": "[PAA, phenylacetic acid]", "values": [
      {"measurement": "Y2H interaction in the presence of the auxin", "setting": "[1]", "result": "No interaction"},
      {"measurement": "Effect on root elongation", "setting": "[2]; Kochia seedlings, biotype not stated", "result": "had an effect on root elongation"}
    ]},
    {"smiles": "O=C(O)COc1ccc(Cl)cc1Cl", "note": "[2,4-D, 2,4-dichlorophenoxyacetic acid]", "values": [
      {"measurement": "Facilitation of interaction of KsIAA16R with KsTIR1 and/or KsAFB6", "setting": "[1]", "result": "cannot"},
      {"measurement": "Ability of KsIAA16R to interact with KsTIR1 in the presence of the auxin", "setting": "[3]", "result": "decreased ability to interact"},
      {"measurement": "Root elongation inhibition of the R Kochia biotype", "setting": "[2]", "result": "resistant"},
      {"measurement": "Interaction between KsIAA16R and KsAFB6 in the presence of the auxin", "setting": "[4]; at the concentrations tested", "result": "not observed"},
      {"measurement": "Visible injury at 14 days after treatment (DAT)", "setting": "R and S Kochia biotypes", "result": "observed"}
    ]},
    {"smiles": "O=C(O)Cc1c[nH]c2ccccc12", "note": "[IAA, indole-3-acetic acid]", "values": [
      {"measurement": "Root Length (in mm) of T2 transgenics on plant nutrient plus auxin", "setting": "[5]; line AtIAA16P:KsIAA16R_T2-1, +5 μM auxin", "result": "12.17 ± 1.01", "unit": "mm"},
      {"measurement": "Root Length (in mm) of T2 transgenics on plant nutrient plus auxin", "setting": "[5]; line AtIAA16P:KsIAA16R_T2-2, +5 μM auxin", "result": "18.17 ± 3.09", "unit": "mm"},
      {"measurement": "Root Length (in mm) of T2 transgenics on plant nutrient plus auxin", "setting": "[5]; line AtIAA16P:KsIAA16R_T2-3, +5 μM auxin", "result": "22.75 ± 2.09", "unit": "mm"},
      {"measurement": "Root Length (in mm) of T2 transgenics on plant nutrient plus auxin", "setting": "[5]; line AtIAA16P:KsIAA16R_T2-4, +5 μM auxin", "result": "27.25 ± 1.88", "unit": "mm"},
      {"measurement": "Root Length (in mm) of T2 transgenics on plant nutrient plus auxin", "setting": "[5]; line AtIAA16P:KsIAA16S_T2-1, +5 μM auxin", "result": "7.0 ± 0.77", "unit": "mm"},
      {"measurement": "Root Length (in mm) of T2 transgenics on plant nutrient plus auxin", "setting": "[5]; line AtIAA16P:KsIAA16S_T2-2, +5 μM auxin", "result": "9.5 ± 0.84", "unit": "mm"},
      {"measurement": "Root Length (in mm) of T2 transgenics on plant nutrient plus auxin", "setting": "[5]; line AtIAA16P:KsIAA16S_T2-3, +5 μM auxin", "result": "5.67 ± 0.54", "unit": "mm"},
      {"measurement": "Root Length (in mm) of T2 transgenics on plant nutrient plus auxin", "setting": "[5]; line AtIAA16P:KsIAA16S_T2-4, +5 μM auxin", "result": "5 ± 0.34", "unit": "mm"},
      {"measurement": "Root Length (in mm) on plant nutrient plus auxin", "setting": "[5]; non-transgenic WT, +5 μM auxin", "result": "5.83 ± 0.24", "unit": "mm"},
      {"measurement": "Resistance to root inhibition", "setting": "[5]; several lines from both constructs", "result": "slight resistance"},
      {"measurement": "Facilitation of interaction of KsIAA16R with KsTIR1 and/or KsAFB6", "setting": "[1]", "result": "can facilitate some interaction"},
      {"measurement": "Root elongation inhibition of the R Kochia biotype", "setting": "[2]", "result": "remained sensitive"},
      {"measurement": "Ability of KsIAA16R to interact with KsAFB6 in the presence of the auxin", "setting": "[4]; only the higher concentration could facilitate binding", "result": "reduced ability to interact"}
    ]},
    {"smiles": "Nc1c(Cl)c(F)nc(OCC(=O)O)c1Cl", "note": "[Fluroxypyr, 4-amino-3,5-dichloro-6-fluoro-2-pyridyloxyacetic acid]", "values": [
      {"measurement": "Y2H interaction in the presence of the auxin", "setting": "[1]", "result": "No interaction"},
      {"measurement": "Facilitation of interaction of KsIAA16R with KsTIR1 and/or KsAFB6", "setting": "[1]", "result": "cannot"},
      {"measurement": "Visible injury at 14 days after treatment (DAT)", "setting": "R and S Kochia biotypes", "result": "observed"}
    ]}
  ]
}
